Results published in US8709764B2, “Enzymatic demethylation of flavonoids” (Universiteit Gent, priority 2005, dated 2014).

Experiments:
[1] = system: fecal culture B supplemented with E. limosum; assay: Supplementation of selected E. limosum strain to non-converting fecal culture B incubated with IX; assay type: in vitro ADME, human; conditions: 8-PN concentration day one versus day seven
Protocol: The most efficient E. limosum strain, obtained from the selection experiment in example 2, was supplemented to the originally non-converting culture B of example 1, to examine the capacity of this strain to initiate the production of 8-PN in the complex environment of a fecal suspension. The strain was added to the culture in proportions ranging from 0% up to 100% (v/v). This mixture was incubated with 10% (v/v) of 25 mg/L IX for a period of seven days in Brain Heart Infusion broth (with 0.5 g/l cystein-HCl) under anaerobic conditions. The concentration of 8-PN was monitored every two days (FIG. 7).

[2] = cited from earlier work
[3] = system: Eubacterium limosum ATCC 8486; assay: Incubation of IX and 8-PN with Eubacterium limosum for 13 days; assay type: in vitro ADME; conditions: E. limosum, 8-PN as substrate, 13 days
Protocol: Eubacterium limosum ATCC 8486 and Peptostreptococcus productus ATCC 27340 were obtained from the German Collection of Microorganisms and Cell Cultures (DSMZ, Braunschweig, Germany). E. limosum was incubated for 13 days in Brain Heart Infusion broth (with 0.5 g/l cystein-HCl) with 25 mg/l of IX and 8-PN under anaerobic conditions (Table 2). This strain was able to convert IX into 8-PN. […] This feature is clearly different from the metabolic pathway as observed in liver microsomes wherein 8-PN is extensively further metabolised [Nikolic et al. (2005) J. of Mass Spectrom. 40, 289-299; Nikolic et al. (2004) Drug Metabolism and Disposition 32, 272-279].

[4] = Incubation of X or IX with human fecal cultures A-D for 8 days, conversion products detected by HPLC; assay type: in vitro ADME; conditions: human, 25 mg/l substrate, 8 days anaerobic, average (stdev) molar percentage relative to dosed flavonoid
Protocol: (§1) Fecal slurries of 20% (w/v) fresh fecal samples were prepared by homogenizing the feces with phosphate buffered saline (0.1 M, pH 7) containing 1 g/l sodiumthioglycolate as reducing agent. The particulate material was removed by centrifugation (1 min, 500×g). The supernatant is hereafter called “the culture”.
(§2) The capacity of the cultures obtained from fecal samples A, B, C and D (further referred as cultures A-D) to degrade or transform the hop prenylflavonoid IX was tested by incubating the fecal cultures (10% (v/v)) in Brain Heart Infusion broth (with 0.5 g/l cystein-HCl) with 25 mg/l of isoxanthohumol for a period of 8 days under anaerobic conditions. Extracts of the incubations at days 0 and 8 were assayed for bioactive transformation products of IX using a Yeast Estrogenic Screen, according to De Boever et al. (2001) Env. Health Perspectives 109, 691-697, based on Routledge & Sumpter (1996) Environ. Toxicol. Chem. 15, 241-248. In brief, Saccharomyces cerevisiae, was transformed with the human estrogen receptor (ERα) gene, together with expression plasmids containing responsive elements and the lacZ reporter gene (encoding the enzyme β-galactosidase). β-galactosidase activity is quantified at 540 nm by the conversion of the chromogenic substance chlorophenol red-β-D-galactopyranoside into chlorophenol red. The bioassay response is expressed as the absorbance at 540 nm divided by the optical density at 630 nm [(A540/A630)net]. The estrogenic activity of the samples was expressed as percentage equivalence to 10 nM estradiol (E2) which elicited a 100% response in the estrogen receptor bioassay. The bioassays were performed in 96-well plates in which 10 μL of the test compounds were tested and incubated with 240 μL of the genetically modified yeast (optical density of 0.25 at 610 nm). Serial dilutions of the test compounds were made in dimethylsulfoxide, which allowed generating dose-response curves for […]. The data were fitted by a 4 parametric logistic model using the Marquardt-Levenberg algorithm (Sigmaplot 4.0, SPSS Inc., Chicago, Ill., USA) (De Boever et al. (2001) Env. Health Perspectives 109, 691-697).
(§3) To further test this transformation, cultures A-D (10% (v/v)) were incubated for 8 days in Brain Heart Infusion broth (with 0.5 g/l cystein-HCl) with either X or IX at a concentration of 25 mg/l under anaerobic conditions and conversion products were detected by HPLC (Table 1). […] However, in culture C almost 40% of 8-PN was recovered, which explains the increase in estrogenic properties of culture C.

human fecal cultures = assay: as above; assay type: in vitro ADME; conditions: all fecal samples A-D, also with autoclaved cultures (non-enzymatic isomerisation)
Protocol: as §1, §2, §3

[5] = rats, 1000 mg/kg body weight of X; cited from earlier work

Row | SMILES | Further conversion of 8-PN [1] | Concentration needed for harmful in-vivo activity [2] [mg/L] | Further degradation of 8-PN [3] | recovery at 8 days, 25 mg/l ([4]; human fecal culture A (10% v/v), fecal Sample A) [%] | recovery at 8 days, 25 mg/l ([4]; human fecal culture B (10% v/v), fecal Sample B) [%] | recovery at 8 days, 25 mg/l ([4]; human fecal culture C (10% v/v), fecal Sample C) [%] | recovery at 8 days, 25 mg/l ([4]; human fecal culture D (10% v/v), fecal Sample D) [%] | Conversion of X to IX (human fecal cultures) | Share of recovered flavonoids in feces that was unchanged X [5] [%]
1 | CC(C)=CCc1c(O)cc(O)c2c1O[C@H](c1ccc(O)cc1)CC2=O [8-PN, 8-prenylnaringenin] | No further conversion of 8-PN was detected | ~100 | did not further degrade 8-PN | – | – | – | – | – | –
2 | COc1cc(O)c(CC=C(C)C)c(O)c1C(=O)/C=C/c1ccc(O)cc1 [X, 2′,4,4′-trihydroxy-3′-prenyl-6′-methoxychalcone] | – | – | – | 74.9 | 80.5 | 73.6 | 65.4 | slightly converted to IX | 89
